Measured values published in US4116963A, “3,3,3-Triarylalkyl-4-phenylalkyl-4-hydroxy piperidines and related compounds” (G.D. Searle & Co., priority 1977, dated 1978).

Columns and labels:
mice [1] = test: Mouse Hot Plate Test; format: in vivo; conditions: for ED50: Mus musculus, printed "mg/kg k.g.", hot plate 55± 0.3° C., analgesic effect, read-out: Hot Plate (HP) ED50; for Relative Constipation Specificity HP/CT: ratio of Hot Plate ED50 to Cecal Test ED50
Experimental: The assessment of the analgesic effect of the instant compounds was conducted in the mouse hot plate and tail clip tests.
A mouse (adult male weighing 18-25 grams) is placed in a restraining cylinder on a hot plate with the temperature controlled at 55± 0.3° C. The reaction time of the mouse to lick a foot or jump is measured at 60, 40 and 20 minutes before and 30, 60, 90, and 120 minutes after administration of the test compound. The "normal" reaction time is measured as the median of the three pretreatment reaction times. A positive response consists of a reaction time greater than twice the normal time at any of the post treatment times. A dose of the test compound is considered active when 50 percent or more of the animals used show a positive response.

mice [2] = test: CECAL (Charcoal Meal Test); format: in vivo; conditions: Mus musculus, po; i.g., 1 hour prior to the charcoal meal; antidiarrheal effect; read-out: Cecal Test (CT) ED50
Experimental: The antidiarrheal effect of the compounds of the present invention are shown by the following test:
CECAL (Charcoal Meal Test)
Mice weighing 18-24 grams and previously fasted for 24 hours are each given orally 0.2 ml of a suspension containing 10% charcoal and 1% methylcellulose. The test compounds are administered intragastrically 1 hour prior to the charcoal meal. 3.5 Hours after administration of the meal the mice are sacrificed by cervical dislocation and the cecum is examined for the presence or absence of charcoal on an all or none basis. Each compound is tested at three dose levels (typically 30, 10, 3 mg/kg) in groups of 6 mice per dose level. Control groups of mice given vehicle only were run concurrently with each test group.

mice [3] = test: Tail Clip Test; format: in vivo, mouse; conditions: for ED50: Mus musculus, po, i.g., analgesic effect, read-out: Tail Clip (TC) ED50; for Relative Constipation Specificity TC/CT: ratio of Tail Clip ED50 to Cecal Test ED50

OC1(c2ccccc2)CCN(CCC(c2ccccc2)(c2ccccc2)c2ccccc2)CC1 [I, 1-(3,3,3-triphenylpropyl)-4-hydroxy-4-phenylpiperidine]
ED50 (mice [1]): ~3 mg/kg | Relative Constipation Specificity HP/CT (mice [1]): 7.6 | ED50 (mice [2]): 0.39 mg/kg | ED50 (mice [3]): ~3 mg/kg | Relative Constipation Specificity TC/CT (mice [3]): 7.6

OC1(Cc2ccccc2)CCN(CCC(c2ccccc2)(c2ccccc2)c2ccccc2)CC1 [II, 1-(3,3,3-triphenylpropyl)-4-hydroxy-4-benzylpiperidine]
ED50 (mice [1]): ~400 mg/kg | Relative Constipation Specificity HP/CT (mice [1]): 667 | ED50 (mice [2]): 0.6 mg/kg | ED50 (mice [3]): ~400 mg/kg | Relative Constipation Specificity TC/CT (mice [3]): 667
